Assay results taken from paper PMC9635925, “Biological screening of a unique drug library targeting MRGPRX2” (Frontiers in Immunology, 2022).
Residue numbers refer to the chain shown, from its start. Counter-ions that a name gives are not always drawn.

Key:
[1] = biological target: T1, MRGPRX2-WT (wild-type MRGPRX2 receptor) (Homo sapiens, UniProt Q96LB1); experiment: Primary HTS, Ca2+ mobilization (fluorescence ratio, B-score) in HEK293-Gα15 cells stably expressing wild-type MRGPRX2; assay type: cell-based; details: 10 μM compound
T1 construct: expressed in transfected cells
T1 sequence (Q96LB1 1-330): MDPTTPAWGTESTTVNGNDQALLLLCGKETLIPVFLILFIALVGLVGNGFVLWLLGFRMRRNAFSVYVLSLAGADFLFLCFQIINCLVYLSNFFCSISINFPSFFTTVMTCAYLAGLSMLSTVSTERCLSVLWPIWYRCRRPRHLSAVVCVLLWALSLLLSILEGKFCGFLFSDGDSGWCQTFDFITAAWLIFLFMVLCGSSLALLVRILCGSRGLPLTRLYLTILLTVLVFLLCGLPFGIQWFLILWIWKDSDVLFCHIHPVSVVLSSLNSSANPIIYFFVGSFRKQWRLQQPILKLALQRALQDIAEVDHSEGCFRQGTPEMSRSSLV

[2] = biological target: T2, MRGPRX2-MUT (MRGPRX2 N62S mutation) (Homo sapiens, UniProt Q96LB1, N62S); experiment: Primary HTS, Ca2+ mobilization (fluorescence ratio, B-score) in HEK293-Gα15 cells stably expressing the MRGPRX2 N62S mutation; assay type: cell-based; details: for B-scores (MUT): 10 μM compound, MRGPRX2-MUT (N62S) cells; for Change of B-scores (%): 10 μM
T2 construct: expressed in transfected cells
T2 sequence (Q96LB1 1-330 N62S): T1 sequence (Q96LB1 1-330) with N62S

LAD2 cells = experiment: β-hexosaminidase release (degranulation) in human mast cell line LAD2; assay type: cell-based
Experimental: (§1) The human mast cell line LAD2 (Laboratory of Allergic Diseases-2) was obtained from Dean Metcalfe, MD (National Institute of Allergy and Infectious Diseases, National Institutes of Health, Bethesda, MD). […] We included two negative and two positive controls for the validation experiments in LAD2 cells. […] Additionally, vehicle control (without any drugs) was also included as the negative control. Drugs were dissolved in PBS (vehicle) and six concentrations were tested for each drug; the known MRGPRX2 agonist C48/80 (10 μg/mL) and Tween 20 (1%), which is a known mast cell activator via MRGPRX2 independent mechanism, were used as positive controls. Two-way ANOVA with the Sidak multiple comparisons test was used for statistical analysis (n=6).
(§2) We further investigated whether these newly discovered candidate drugs can serve as agonists for MRGPRX2-dependent activation of MCs.

[3] = system: MRGPRX2-deficient LAD2 cells; experiment: β-hexosaminidase release in MRGPRX2-deficient LAD2 cells (CRISPR/Cas9); assay type: cell-based, human; details: two-way ANOVA, P< 0.0001
Experimental: as §1, §2

[4] = MRGPRX2-MUT in comparison to MRGPRX2-WT cells, Supplementary Table 1
[5] = MRGPRX2-MUT in comparison to MRGPRX2-WT cells, Table 1
[6] = MRGPRX2-MUT versus MRGPRX2-WT cells, Supplementary Table 2

Compound	B-scores (WT) ([1]; Supplementary Table 1)	B-scores (WT) ([1]; Supplementary Table 2)	B-scores (WT) ([1]; Table 1)	B-scores (MUT) ([2]; Supplementary Table 1)	B-scores (MUT) ([2]; Supplementary Table 2)	B-scores (MUT) ([2]; Table 1)	Change of B-scores (%) [2, 4]	Change of B-scores (%) [2, 5]	Change of B-scores (%) [2, 6]	β-hexosaminidase release (LAD2 cells; at 500 μM)	degranulation (β-hexosaminidase release) in LAD2 cells lacking MRGPRX2 [3]	β-hexosaminidase release (LAD2 cells; at 125 μM)
CN(C)CCC(c1ccc(Br)cc1)c1ccccn1 (centres unmarked) [Brompheniramine Maleate]	41.41	41.41	41.41	1.21	1.21	1.21	-97.07%	-97.07%	-97.07%	56.43%	decreased to the level of vehicle controls	–
Cc1ccc(NC(=O)c2ccc(CN3CCN(C)CC3)cc2)cc1Nc1nccc(-c2cccnc2)n1 [Imatinib Mesylate]	–	–	–	–	–	–	–	–	–	–	decreased to the level of vehicle controls	58.42%
CCn1cc(C(=O)O)c(=O)c2cc(F)c(N3CCN(C)CC3)cc21.CS(=O)(=O)O [Pefloxacine Mesylate]	–	7.86	–	–	-0.79	–	–	–	-110.02%	–	–	–
N=C(N)c1ccc(OCCCCCOc2ccc(C(=N)N)cc2)cc1 [Pentamidine Isethionate]	37.48	–	–	0.43	–	–	-98.84%	–	–	–	–	–
N=C(N)c1ccc(OCCCCCOc2ccc(C(=N)N)cc2)cc1 [Pentamidine]	24.12	–	–	8.70	–	–	-63.92%	–	–	–	–	–
CN1CCC(=C2c3ccccc3CCc3sccc32)CC1.O=C(O)CC(O)C(=O)O [Pizotyline Malate]	39.73	–	–	1.29	–	–	-96.75%	–	–	–	–	–
CN(C)CCCN1c2ccccc2Sc2ccccc21 [Promazine Hydrochloride]	23.47	23.47	23.47	8.13	8.13	8.13	-65.37%	-65.37%	-65.37%	–	–	–
CNCCCC1c2ccccc2C=Cc2ccccc21 [Protriptyline Hydrochloride]	24.43	–	24.43	3.59	–	3.59	-85.30%	-85.30%	–	–	–	–
COc1ccc(CN(CCN(C)C)c2ccccn2)cc1 [Pyrilamine]	–	13.36	–	–	0.23	–	–	–	-98.24%	–	–	–
CCOC(=O)[C@H](CCc1ccccc1)N[C@@H](C)C(=O)N1[C@H](C(=O)O)C[C@@H]2CCC[C@@H]21 [Ramipril]	22.18	–	–	31.66	–	–	42.73%	–	–	–	–	–
CO[C@H]1/C=C/O[C@@]2(C)Oc3c(C)c(O)c4c(O)c(c(/C=N/N5CCN(C)CC5)c(O)c4c3C2=O)NC(=O)/C(C)=C\C=C\[C@H](C)[C@H](O)[C@@H](C)[C@@H](O)[C@@H](C)[C@H](OC(C)=O)[C@@H]1C [Rifampin]	23.94	–	23.94	0.37	–	0.37	-98.45%	-98.45%	–	–	–	–
CN1CCN(c2c(F)cc3c(=O)c(C(=O)O)cn4c3c2SCC4)CC1.Cl [Rufloxacin Hydrochloride]	19.85	–	19.85	–	–	-0.15	-100.76%	-100.76%	–	–	–	–
CC(C)(C)NCC(O)c1ccc(O)c(CO)c1 (centres unmarked) [Salbutamol]	–	13.61	–	–	0.36	–	–	–	-97.38%	–	–	–
O=C(O)c1cn(-c2ccc(F)cc2)c2cc(N3CCNCC3)c(F)cc2c1=O [Sarafloxacin hydrochloride]	–	15.97	–	–	0	–	–	–	-100%	–	–	–
CN1CCN(CCCN2c3ccccc3Sc3ccc(C(F)(F)F)cc32)CC1 [Stelazine]	–	7.75	–	–	1.08	–	–	–	-86.07%	–	–	–
CC(C)(C)NCC(O)c1cc(O)cc(O)c1.CC(C)(C)NCC(O)c1cc(O)cc(O)c1.O=S(=O)(O)O (centres unmarked) [Terbutaline Hemisulfate]	–	15.97	–	–	1.91	–	–	–	-88.03%	–	–	–
C[CH2][Hg][S]c1ccccc1C(=O)[O-].[Na+] [Thimerosal]	18.55	–	–	0.33	–	–	-98.25%	–	–	–	–	–
CN1CCN(CC/C=C2/c3ccccc3Sc3ccc(S(=O)(=O)N(C)C)cc32)CC1 [Thiothixene]	20.36	–	20.36	5.11	–	5.11	-74.90%	-74.90%	–	–	–	–
COc1ccc(CN(CCN(C)C)c2ncccn2)cc1 [Thonzylamine Hydrochloride]	33.23	–	33.23	1.69	–	1.69	-94.91%	-94.91%	–	–	–	–
CN(C)CCCN1c2ccccc2Sc2ccc(C(F)(F)F)cc21 [Triflupromazine Hydrochloride]	–	8.62	–	–	0.85	–	–	–	-90.15%	–	–	–
CC(CN(C)C)CN1c2ccccc2Sc2ccccc21.CC(CN(C)C)CN1c2ccccc2Sc2ccccc21.O=C(O)C(O)C(O)C(=O)O (centres unmarked) [Trimeprazine Tartrate]	27.11	–	–	19.11	–	–	-29.51%	–	–	–	–	–
COc1cc(C(=O)NCc2ccc(OCCN(C)C)cc2)cc(OC)c1OC [Trimethobenzamide Hydrochloride]	18.56	–	–	0.14	–	–	-99.27%	–	–	–	–	–
CC(CN(C)C)CN1c2ccccc2CCc2ccccc21 (centres unmarked) [Trimipramine Maleate]	23.09	–	23.09	3.48	–	3.48	-84.91%	-84.91%	–	–	–	–
Cc1ccc(/C(=C\CN2CCCC2)c2ccccn2)cc1.Cl [Triprolidine Hydrochloride]	20.71	–	20.71	0.68	–	0.68	-96.71%	-96.71%	–	–	–	–
COc1ccc(CCN(C)CCCC(C#N)(c2ccc(OC)c(OC)c2)C(C)C)cc1OC (centres unmarked) [Verapamil Hydrochloride]	–	9.68	–	–	1.41	–	–	–	-85.46%	–	–	–
COc1ccc(CCN(C)CCCC(C#N)(c2ccc(OC)c(OC)c2)C(C)C)cc1OC (centres unmarked) [Verapamil]	–	5.44	–	–	-1.44	–	–	–	-126.44%	–	–	–
Bacitracin A	20.22	–	20.22	–	–	-0.17	–	–	–	61.94%	decreased to the level of vehicle controls	–
Buserelin	20.46	–	20.46	5.73	–	5.73	-71.99%	-71.99%	–	–	–	–
Corticotropin A (SYSMEHFRWGKPVGKKRRPVKVYPNGAEDESAEAFPLEF; Corticotropin; UniProt P01189 138-176, looked up) [Adrenocorticotropic hormone (ACTH)]	37.20	–	–	15.06	–	–	-59.51%	–	–	–	–	–
